Assay results as given in ChEMBL document CHEMBL5724806, “Unraveling interindividual differences and functional consequences of gut microbial metabolism of immunosuppressants” (2024).

Experiments:
Type in all cases: ADME
[1] = The drug is tested on Streptococcus anginosus strain: DSM20563 for biotransformation under anaerobic condition. The drug concentrations were measured over 6 timepoints collected between 0 and 12 hours of incubation by liquid-chromatography-coupled mass spectrometry (LC–MS); design: dose 5 uM, timepoint 0, 1.5, 3, 6, 9, 12 hours; settings: 5 µM
[2] = (§1) The drug is tested on the gut metagenome community of A-04 with ENA study accession number: PRJEB31790 for biotransformation under microaerobic condition. The drug concentrations were measured over 7 timepoints collected between 0 and 12 hours of incubation by liquid-chromatography-coupled mass spectrometry (LC–MS); design: dose 5 uM, timepoint 0, 0.75, 1.5, 3, 6, 9, 12 hours; settings: 5 µM
[3] = The drug is tested on Enterococcus faecalis strain: ATCC29212 for biotransformation under microaerobic condition. The drug concentrations were measured over 6 timepoints collected between 0 and 12 hours of incubation by liquid-chromatography-coupled mass spectrometry (LC–MS); design: dose 5 uM, timepoint 0, 1.5, 3, 6, 9, 12 hours; settings: 5 µM
[4] = The drug is tested on Actinomyces naeslundi strain: DSM43013 for biotransformation under microaerobic condition. The drug concentrations were measured over 6 timepoints collected between 0 and 12 hours of incubation by liquid-chromatography-coupled mass spectrometry (LC–MS); design: dose 5 uM, timepoint 0, 1.5, 3, 6, 9, 12 hours; settings: actinomyces naeslundii, 5 µM
[5] = The drug is tested on Capnocytophaga ochracea strain: DSM7271 for biotransformation under microaerobic condition. The drug concentrations were measured over 6 timepoints collected between 0 and 12 hours of incubation by liquid-chromatography-coupled mass spectrometry (LC–MS); design: dose 5 uM, timepoint 0, 1.5, 3, 6, 9, 12 hours; settings: 5 µM
[6] = The drug is tested on Lactobacillus gasseri strain: DSM20243 for biotransformation under microaerobic condition. The drug concentrations were measured over 6 timepoints collected between 0 and 12 hours of incubation by liquid-chromatography-coupled mass spectrometry (LC–MS); design: dose 5 uM, timepoint 0, 1.5, 3, 6, 9, 12 hours; settings: 5 µM
[7] = as §1, with “A-09” for “A-04”, “anaerobic” for “microaerobic”; design: dose 5 uM, timepoint 0, 0.75, 1.5, 3, 6, 9, 12 hours; settings: 5 µM
[8] = as §1, with “A-08” for “A-04”; design: dose 5 uM, timepoint 0, 0.75, 1.5, 3, 6, 9, 12 hours; settings: 5 µM
[9] = The drug is tested on Enterococcus faecalis strain: ATCC29212 for biotransformation under anaerobic condition. The drug concentrations were measured over 6 timepoints collected between 0 and 12 hours of incubation by liquid-chromatography-coupled mass spectrometry (LC–MS); design: dose 5 uM, timepoint 0, 1.5, 3, 6, 9, 12 hours; settings: 5 µM
[10] = The drug is tested on Faecalibacterium prausnitzii strain: DSM17677 for biotransformation under anaerobic condition. The drug concentrations were measured over 6 timepoints collected between 0 and 12 hours of incubation by liquid-chromatography-coupled mass spectrometry (LC–MS); design: dose 5 uM, timepoint 0, 1.5, 3, 6, 9, 12 hours; settings: faecalibacterium duncaniae, 5 µM
[11] = The drug is tested on Roseburia intestinalis strain: DSM14610 for biotransformation under anaerobic condition. The drug concentrations were measured over 6 timepoints collected between 0 and 12 hours of incubation by liquid-chromatography-coupled mass spectrometry (LC–MS); design: dose 5 uM, timepoint 0, 1.5, 3, 6, 9, 12 hours; settings: 5 µM
[12] = The drug is tested on Parabacteroides merdae strain: DSM19495 for biotransformation under anaerobic condition. The drug concentrations were measured over 6 timepoints collected between 0 and 12 hours of incubation by liquid-chromatography-coupled mass spectrometry (LC–MS); design: dose 5 uM, timepoint 0, 1.5, 3, 6, 9, 12 hours; settings: 5 µM
[13] = as §1, with “T-02” for “A-04”; design: dose 5 uM, timepoint 0, 0.75, 1.5, 3, 6, 9, 12 hours; settings: 5 µM
[14] = The drug is tested on Prevotella copri strain: DSM18205 for biotransformation under anaerobic condition. The drug concentrations were measured over 6 timepoints collected between 0 and 12 hours of incubation by liquid-chromatography-coupled mass spectrometry (LC–MS); design: dose 5 uM, timepoint 0, 1.5, 3, 6, 9, 12 hours; settings: segatella copri, 5 µM
[15] = The drug is tested on Bacteroides stercoris strain: HM 1036 for biotransformation under anaerobic condition. The drug concentrations were measured over 6 timepoints collected between 0 and 12 hours of incubation by liquid-chromatography-coupled mass spectrometry (LC–MS); design: dose 5 uM, timepoint 0, 1.5, 3, 6, 9, 12 hours; settings: 5 µM
[16] = The drug is tested on Bacteroides thetaiotaomicron strain: DSM2079 for biotransformation under anaerobic condition. The drug concentrations were measured over 6 timepoints collected between 0 and 12 hours of incubation by liquid-chromatography-coupled mass spectrometry (LC–MS); design: dose 5 uM, timepoint 0, 1.5, 3, 6, 9, 12 hours; settings: 5 µM
[17] = as §1, with “A-10” for “A-04”, “anaerobic” for “microaerobic”; design: dose 5 uM, timepoint 0, 0.75, 1.5, 3, 6, 9, 12 hours; settings: 5 µM
[18] = The drug is tested on Capnocytophaga ochracea strain: DSM7271 for biotransformation under anaerobic condition. The drug concentrations were measured over 6 timepoints collected between 0 and 12 hours of incubation by liquid-chromatography-coupled mass spectrometry (LC–MS); design: dose 5 uM, timepoint 0, 1.5, 3, 6, 9, 12 hours; settings: 5 µM
[19] = The drug is tested on Streptococcus sanguinis strain: DSM20567 for biotransformation under microaerobic condition. The drug concentrations were measured over 6 timepoints collected between 0 and 12 hours of incubation by liquid-chromatography-coupled mass spectrometry (LC–MS); design: dose 5 uM, timepoint 0, 1.5, 3, 6, 9, 12 hours; settings: 5 µM
[20] = The drug is tested on Bifidobacterium adolescentis strain: DSM20083 for biotransformation under anaerobic condition. The drug concentrations were measured over 6 timepoints collected between 0 and 12 hours of incubation by liquid-chromatography-coupled mass spectrometry (LC–MS); design: dose 5 uM, timepoint 0, 1.5, 3, 6, 9, 12 hours; settings: 5 µM
[21] = The drug is tested on Gemella morbillorum strain: DSM20572 for biotransformation under microaerobic condition. The drug concentrations were measured over 6 timepoints collected between 0 and 12 hours of incubation by liquid-chromatography-coupled mass spectrometry (LC–MS); design: dose 5 uM, timepoint 0, 1.5, 3, 6, 9, 12 hours; settings: 5 µM
[22] = as §1, with “A-10” for “A-04”; design: dose 5 uM, timepoint 0, 0.75, 1.5, 3, 6, 9, 12 hours; settings: 5 µM
[23] = The drug is tested on Lactobacillus ruminis strain: ATCC25644 for biotransformation under anaerobic condition. The drug concentrations were measured over 6 timepoints collected between 0 and 12 hours of incubation by liquid-chromatography-coupled mass spectrometry (LC–MS); design: dose 5 uM, timepoint 0, 1.5, 3, 6, 9, 12 hours; settings: ligilactobacillus ruminis, 5 µM
[24] = as §1, with “P-04” for “A-04”, “anaerobic” for “microaerobic”; design: dose 5 uM, timepoint 0, 0.75, 1.5, 3, 6, 9, 12 hours; settings: 5 µM
[25] = as §1, with “P-01” for “A-04”, “anaerobic” for “microaerobic”; design: dose 5 uM, timepoint 0, 0.75, 1.5, 3, 6, 9, 12 hours; settings: 5 µM
[26] = The drug is tested on Parabacteroides distasonis strain: DSM20701 for biotransformation under anaerobic condition. The drug concentrations were measured over 6 timepoints collected between 0 and 12 hours of incubation by liquid-chromatography-coupled mass spectrometry (LC–MS); design: dose 5 uM, timepoint 0, 1.5, 3, 6, 9, 12 hours; settings: 5 µM
[27] = as §1, with “T-03” for “A-04”; design: dose 5 uM, timepoint 0, 0.75, 1.5, 3, 6, 9, 12 hours; settings: 5 µM
[28] = as §1, with “A-05” for “A-04”, “anaerobic” for “microaerobic”; design: dose 5 uM, timepoint 0, 0.75, 1.5, 3, 6, 9, 12 hours; settings: 5 µM
[29] = The drug is tested on Bifidobacterium longum strain: DSM20088 for biotransformation under microaerobic condition. The drug concentrations were measured over 6 timepoints collected between 0 and 12 hours of incubation by liquid-chromatography-coupled mass spectrometry (LC–MS); design: dose 5 uM, timepoint 0, 1.5, 3, 6, 9, 12 hours; settings: 5 µM
[30] = as §1, with “A-03” for “A-04”, “anaerobic” for “microaerobic”; design: dose 5 uM, timepoint 0, 0.75, 1.5, 3, 6, 9, 12 hours; settings: 5 µM

| Bacterial Biotransformation [1] | Bacterial Biotransformation [2] | Bacterial Biotransformation [3] | Bacterial Biotransformation [4] | Bacterial Biotransformation [5] | Bacterial Biotransformation [6] | Bacterial Biotransformation [7] | Bacterial Biotransformation [8] | Bacterial Biotransformation [9] | Bacterial Biotransformation [10] | Bacterial Biotransformation [11] | Bacterial Biotransformation [12] | Bacterial Biotransformation [13] | Bacterial Biotransformation [14] | Bacterial Biotransformation [15] | Bacterial Biotransformation [16] | Bacterial Biotransformation [17] | Bacterial Biotransformation [18] | Bacterial Biotransformation [19] | Bacterial Biotransformation [20] | SMILES | other results |
| --- | --- | --- | --- | --- | --- | --- | --- | --- | --- | --- | --- | --- | --- | --- | --- | --- | --- | --- | --- | --- | --- |
| Compound NOT metabolized | Compound metabolized | Compound NOT metabolized | Compound NOT metabolized | Compound NOT metabolized | Compound NOT metabolized | Compound metabolized | Compound metabolized | Compound metabolized | Compound NOT metabolized | Compound metabolized | Compound NOT metabolized | Compound metabolized | Compound NOT metabolized | Compound NOT metabolized | Compound NOT metabolized | Compound metabolized | Compound NOT metabolized | Compound NOT metabolized | Compound NOT metabolized | C=CC[C@@H]1/C=C(\C)C[C@H](C)C[C@H](OC)[C@H]2O[C@@](O)(C(=O)C(=O)N3CCCC[C@H]3C(=O)O[C@H](/C(C)=C/[C@@H]3CC[C@@H](O)[C@H](OC)C3)[C@H](C)[C@@H](O)CC1=O)[C@H](C)C[C@@H]2OC.O [TACROLIMUS] | Bacterial Biotransformation [21]: Compound NOT metabolized; Bacterial Biotransformation [22]: Compound metabolized; Bacterial Biotransformation [23]: Compound NOT metabolized; Bacterial Biotransformation [24]: Compound NOT metabolized; Bacterial Biotransformation [25]: Compound NOT metabolized; Bacterial Biotransformation [26]: Compound NOT metabolized; Bacterial Biotransformation [27]: Compound NOT metabolized; Bacterial Biotransformation [28]: Compound NOT metabolized; Bacterial Biotransformation [29]: Compound NOT metabolized; Bacterial Biotransformation [30]: Compound NOT metabolized |
| Compound NOT metabolized | Compound metabolized | Compound NOT metabolized | Compound NOT metabolized | Compound NOT metabolized | Compound NOT metabolized | Compound metabolized | Compound metabolized | Compound NOT metabolized | Compound NOT metabolized | Compound NOT metabolized | Compound NOT metabolized | Compound metabolized | Compound NOT metabolized | Compound NOT metabolized | Compound NOT metabolized | Compound metabolized | Compound NOT metabolized | Compound NOT metabolized | Compound NOT metabolized | C[C@]12C=CC(=O)C=C1CC[C@@H]1[C@@H]2[C@@H](O)C[C@@]2(C)[C@H]1CC[C@]2(O)C(=O)CO [PREDNISOLONE] | Bacterial Biotransformation [21]: Compound NOT metabolized; Bacterial Biotransformation [22]: Compound metabolized; Bacterial Biotransformation [23]: Compound NOT metabolized; Bacterial Biotransformation [24]: Compound metabolized; Bacterial Biotransformation [25]: Compound metabolized; Bacterial Biotransformation [26]: Compound NOT metabolized; Bacterial Biotransformation [27]: Compound NOT metabolized; Bacterial Biotransformation [28]: Compound metabolized; Bacterial Biotransformation [29]: Compound NOT metabolized; Bacterial Biotransformation [30]: Compound metabolized |
| Compound NOT metabolized | Compound metabolized | Compound NOT metabolized | Compound NOT metabolized | Compound NOT metabolized | Compound NOT metabolized | Compound metabolized | Compound metabolized | Compound NOT metabolized | Compound NOT metabolized | Compound NOT metabolized | Compound NOT metabolized | Compound metabolized | Compound NOT metabolized | Compound NOT metabolized | Compound NOT metabolized | Compound metabolized | Compound NOT metabolized | Compound NOT metabolized | Compound NOT metabolized | C[C@H]1C[C@@H]2[C@H]([C@@H](O)C[C@@]3(C)[C@H]2CC[C@]3(O)C(=O)CO)[C@@]2(C)C=CC(=O)C=C12 [METHYLPREDNISOLONE] | Bacterial Biotransformation [21]: Compound NOT metabolized; Bacterial Biotransformation [22]: Compound metabolized; Bacterial Biotransformation [23]: Compound NOT metabolized; Bacterial Biotransformation [24]: Compound metabolized; Bacterial Biotransformation [25]: Compound metabolized; Bacterial Biotransformation [26]: Compound NOT metabolized; Bacterial Biotransformation [27]: Compound NOT metabolized; Bacterial Biotransformation [28]: Compound metabolized; Bacterial Biotransformation [29]: Compound NOT metabolized; Bacterial Biotransformation [30]: Compound metabolized |
